Counter-ions that a name gives are not always drawn.

Data on 24 compounds can be found in patent US20020151712A1, “3-pyrrolidinyloxy-3'-pyridyl ether compounds useful for controlling chemical synaptic transmission” (priority 1999, published 2002).

The first data set deals with neuronal nicotinic acetylcholine receptors (Rattus norvegicus, UniProt P09483+P12390). Kind of data set: [3H]-cytisine binding to neuronal nicotinic acetylcholine receptors, crude synaptic membranes from whole rat brain. The settings on record: [3H]-CYT 1.25 nM, 60 minutes at 4° C., Ki from IC50 by Cheng and Prusoff correction. As for the experimental part: The in vitro protocols for determination of nicotinic acetylcholine channel receptor binding potencies of ligands was determined as follows.
neuronal nicotinic acetylcholine receptors, sequence (P09483 31-630): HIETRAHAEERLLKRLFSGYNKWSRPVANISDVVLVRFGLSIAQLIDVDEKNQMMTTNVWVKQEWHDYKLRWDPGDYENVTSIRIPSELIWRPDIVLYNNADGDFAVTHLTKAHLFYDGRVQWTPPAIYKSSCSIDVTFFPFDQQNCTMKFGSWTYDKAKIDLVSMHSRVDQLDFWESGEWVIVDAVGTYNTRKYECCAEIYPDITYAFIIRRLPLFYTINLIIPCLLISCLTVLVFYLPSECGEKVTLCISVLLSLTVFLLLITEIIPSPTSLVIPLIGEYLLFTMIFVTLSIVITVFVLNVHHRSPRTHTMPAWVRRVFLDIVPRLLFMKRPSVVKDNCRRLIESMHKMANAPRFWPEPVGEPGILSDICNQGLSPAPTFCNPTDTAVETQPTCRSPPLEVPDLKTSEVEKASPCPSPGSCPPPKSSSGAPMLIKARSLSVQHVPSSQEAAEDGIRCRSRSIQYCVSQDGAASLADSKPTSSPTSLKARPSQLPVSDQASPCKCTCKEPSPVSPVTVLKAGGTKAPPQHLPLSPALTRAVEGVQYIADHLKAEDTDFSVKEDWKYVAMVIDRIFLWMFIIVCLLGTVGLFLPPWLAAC
neuronal nicotinic acetylcholine receptors, sequence (P12390 25-500): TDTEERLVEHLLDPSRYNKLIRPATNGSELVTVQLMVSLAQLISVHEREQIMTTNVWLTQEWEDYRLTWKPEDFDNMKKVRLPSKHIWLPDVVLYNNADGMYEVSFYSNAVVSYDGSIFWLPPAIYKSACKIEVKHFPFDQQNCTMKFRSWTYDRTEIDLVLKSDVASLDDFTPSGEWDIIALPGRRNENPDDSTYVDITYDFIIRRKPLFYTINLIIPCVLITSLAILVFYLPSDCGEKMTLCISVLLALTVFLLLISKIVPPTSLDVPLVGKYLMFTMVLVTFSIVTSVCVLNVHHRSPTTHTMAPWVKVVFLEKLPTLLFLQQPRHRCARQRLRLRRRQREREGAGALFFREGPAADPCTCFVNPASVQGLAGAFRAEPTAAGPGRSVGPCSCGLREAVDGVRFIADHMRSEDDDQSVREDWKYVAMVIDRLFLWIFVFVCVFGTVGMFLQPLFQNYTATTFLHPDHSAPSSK
Binding of [^3H]-cytisine ([^3H]-CYT) to neuronal nicotinic acetylcholine receptors was accomplished using crude synaptic membrane preparations from whole rat brain (Pabreza et al., Molecular Pharmacol., 1990, v. 39, p. 9). Washed membranes were stored at −80° C. prior to use. Frozen aliquots were slowly thawed and resuspended in 20 volumes of buffer (containing: 120 mM NaCl, 5 mM KCl, 2 mM MgCl2, 2 mM CaCl2 and 50 mM Tris-Cl, pH 7.4 at 4° C.). After centrifuging at 20,000×g for 15 minutes, the pellets were resuspended in 30 volumes of buffer.
The test compounds were dissolved in water to make 10 mM stock solutions. […]
Homogenate (containing 125-150 μg protein) was added to triplicate tubes containing the range of concentrations of test compound described above and [^3H]-CYT (1.25 nM) in a final volume of 500 μl. […] The filters are counted in 4 mL of Ecolume® (ICN). Nonspecific binding was determined in the presence of 10 μM (−)-nicotine and values were expressed as a percentage of total binding. IC50 values were determined with a four-parameter non-linear regression and IC50 values were converted to Ki values using the Cheng and Prusoff correction (Ki=IC50/(1+[ligand]/Kd of ligand).
As usually defined, the Ki is the equilibrium dissociation constant of an inhibitor or competing ligand from its target. `Clc1ncc(OC[C@@H]2CCNC2)cc1Br` [Example 35, 3-Bromo-2-chloro-5-(3-(R)-pyrrolidinylmethoxy)pyridine 4-methyl benzenesulfonate] returned a Ki of 0.021 nM.

Tested on in the next data set: not given
Assay: not given
Conditions: not given
For orientation: melting point means the temperature of the solid-liquid transition. `Cl.c1ncc(-c2cncc(O[C@@H]3CCNC3)c2)cn1` [Example 13, 3-(3-(R)-Pyrrolidinyloxy)-5-(5-pyrimidinyl)pyridine hydrochloride] displayed a melting point of 67 to 69 °C.
`Clc1ncc(OCC2CCNC2)cc1Br` (stereo not drawn) (as salt: toluenesulfonate) [Example 25, 3-Bromo-2-chloro-5-(3-pyrrolidinylmethoxy)pyridine toluenesulfonate] registered a melting point of 105 to 107 °C.
On the same count and under the same terms, next, `CCCCCCC#Cc1cncc(O[C@H]2CCNC2)c1.Cl` [Example 8, 3-(3-(S)-pyrrolidinyloxy)-5-(1-octynyl)pyridine hydrochloride]: 66 to 68 °C.
Consider `Cl.Clc1ccc(-c2cncc(O[C@H]3CCNC3)c2)cc1` [Example 21, 3-(3-(S)-Pyrrolidinyloxy)-5-(4-chlorophenyl)pyridine hydrochloride], for which the melting point was 65 °C (dec.).
Same read-out and setting: the same measure for `Cl.Clc1ncc(O[C@H]2CCNC2)cc1Br` [Example 22, 3-(3-(S)-Pyrrolidinyloxy)-5-bromo-6-chloropyridine hydrochloride]: 178 to 180 °C; for `Clc1cc(OCC2CCNC2)cnc1Cl` (stereo not drawn) (as salt: toluenesulfonate) [Example 33, 2,3-Dichloro-5-(pyrrolidinyl-3-methoxy)pyridine p-toluenesulfonate]: 82 to 84 °C.
`CN1CCC(COc2ccc(Cl)nc2)C1` (stereo not drawn) (as salt: toluenesulfonate) [Example 32, 2-Chloro-5-(1-methylpyrrolidinyl-3-methoxy)pyridine p-toluenesulfonate] returned a melting point of 75 to 77 °C.
On the same count and under the same terms, next, `Fc1ccc(OC2CCCCNC2)cn1` (stereo not drawn) (as salt: hydrochloride) [Example 30, 3-(6-Fluoropyridinyl-3-oxy)perhydroazepine hydrochloride]: 121 to 122 °C; `Cl.c1ccc(-c2cncc(O[C@H]3CCNC3)c2)cc1` [Example 15, 3-(3-(S)-Pyrrolidinyloxy)-5-phenylpyridine hydrochloride]: 60 °C (dec.); `CN1CC[C@H](Oc2cnc(Cl)c(C=Cc3ccncc3)c2)C1.Cl`: 106 to 108 °C.
The same measure, in the same setting: next, `CCCCCCC#Cc1cncc(O[C@@H]2CCN(C)C2)c1.Cl` [Example 10, 3-(1-N-Methyl-3-(R)-pyrrolidinyloxy)-5-(1-octynyl)pyridine hydrochloride]: 133 to 135 °C; `CN1CC[C@@H](Oc2cncc(C=Cc3ccncc3)c2)C1.Cl` [Example 5, 3-(1-Methyl-3-(R)-pyrrolidinyloxy)-5-(2-(4-pyridyl)ethenyl)pyridine hydrochloride]: 88 to 90 °C; `c1csc(-c2cncc(O[C@@H]3CCNC3)c2)c1` (as salt: hydrochloride) [Example 19, 3-(3-(R)-Pyrrolidinyloxy)-5-thienylpyridine hydrochloride]: 201 to 203 °C.
Same read-out and setting: the same measure for `Cl.c1ncc(-c2cncc(O[C@H]3CCNC3)c2)cn1` [Example 11, 3-(3-(S)-pyrrolidinyloxy)-5-(5-pyrimidyl)pyridine hydrochloride]: 60 to 62 °C.
Regarding `Cl.Nc1cccc(-c2cncc(O[C@H]3CCNC3)c2)c1` [Example 14, 3-(3-(S)-Pyrrolidinyloxy)-5-(3-aminophenyl)pyridine hydrochloride], the melting point was 208 °C (dec.).
Regarding `CC(C)(C)C=CC=Cc1cncc(O[C@H]2CCNC2)c1` (as salt: hydrochloride) [Example 7, 3-(3-(S)-Pyrrolidinyloxy-5-(5,5-dimethylhexadienyl)pyridine hydrochloride], the melting point was 148 °C (dec.).
Consider `CN1CC[C@H](Oc2cnc(Cl)c(Br)c2)C1.Cl` [Example 23, 3-(1-N-Methyl-3-(S)-pyrrolidinyloxy)-5-bromo-6-chloropyridine hydrochloride], for which the melting point is 180 °C (dec.).
On the same count and under the same terms, next, `Cl.c1ccc(-c2cncc(O[C@@H]3CCNC3)c2)cc1` [Example 17, 3-(3-(R)-Pyrrolidinyloxy)-5-phenylpyridine hydrochloride]: 60 °C (dec.); `CN1CC[C@H](Oc2cncc(-c3ccccc3)c2)C1.Cl` [Example 16, 3-(1-Methyl-3-(S)-pyrrolidinyloxy)-5-phenylpyridine hydrochloride]: 88 to 90 °C.

For the next data set, the system named is mice. Kind of data set: mouse hot plate paradigm (analgesia). The conditions noted are these: mouse hot plate 55° C., intraperitoneal, dosed 30 minutes prior to testing, increase in tenth jump latency relative to control. The format is in vivo. As for the experimental part: An in vivo protocol was utilized to determine the effectiveness of nicotinic acetylcholine receptor ligands as analgesic agents in the mouse hot plate paradigm. Separate groups of mice, (n=8/group) were utilized for each dose group. All drugs were administered by the intraperitoneal route of administration. Test drugs were dissolved in water to make a 6.2 mM stock solution. Animals were dosed with this solution (10 mL/kg body weight) for a 62 micromol/kg dose. Lower doses were administered similarly, following serial dilution of the stock solution in half-log increments. Animals were dosed 30 minutes prior to testing in the hot plate. The hot-plate utilized was an automated analgesia monitor (Model #AHP16AN, Omnitech Electronics, Inc. of Columbus, Ohio). The temperature of the hot plate was maintained at 55° C. and a cut-off time of 180 seconds was utilized. Latency until the tenth jump was recorded as the dependent measure. An increase in the tenth jump latency relative to the control was considered an effect.
As to `CN1CCC(COc2cnc(Cl)c(Br)c2)C1` (stereo not drawn) [Example 26, 3-Bromo-2-chloro-5-(1-methyl-3-pyrrolidinylmethoxy) pyridine toluenesulfonate], the “minimally effective dose (MED), Dosage” value was 62 µmol/kg.
Still for that read-out and setting: the same measure for `Cc1ccc(S(=O)(=O)O)cc1.Cc1cncc(OCC2CCNC2)c1` (stereo not drawn) [Example 27, 5-methyl-3-(3-pyrrolidinylmethoxy)pyridine tosylate]: 19 µmol/kg; for `Cc1ccc(OC2CCCCNC2)cn1` (stereo not drawn) [Example 29, 3-(6-Methylpyridinyl-3-oxy)perhydroazepine dihydrochloride]: 62 µmol/kg; for `Clc1ncc(OCC2CCNC2)cc1Br` (stereo not drawn) [Example 25, 3-Bromo-2-chloro-5-(3-pyrrolidinylmethoxy)pyridine toluenesulfonate]: 6.2 µmol/kg.
